The target of experiment [1] is T1, Recombinant STAT3 protein (STAT3 (G127-I722)) (Homo sapiens, UniProt P40763).
T1 construct: Recombinant STAT3 protein (STAT3 (G127-I722))
In words: STAT3 Fluorescence Polarization (FP) Assay. The format is binding. The following applies: probe 5-FAM-GpYLPQTV-NH2 2 nM, 45-minute incubation. As to the method: STAT3 Fluorescence Polarization (FP) Assay
An FP assay was developed to determine IC50 values for test substances. Recombinant STAT3 protein (STAT3 (G127-I722)) at 25 nM was combined with a fluorescently labeled, phosphotyrosine peptide probe (5-FAM-GpYLPQTV-NH2) at 2 nM in FP buffer (10 mM HEPES pH 7.4, 50 mM NaCl, 1 mM EDTA, 0.05% Tween 20.2 mM DTT). 50 μL of STAT3-probe mixture was added to serial diluted compounds in black, 96-well plates (Greiner BioOne 655076) to a final concentration of 1% DMSO. Reaction components were mixed, and FP was measured after 45-minute incubation at room temperature using a Tecan Spark multimode plate reader. FP signal (mP) was plotted against the log concentration of the test substances and IC50 values were calculated by nonlinear regression analysis using GraphPad Prism software. For STAT3 FP assay, A=≤100 nM; B=>100-1000 nM; C=>1-10 μM; and D=>10 μM.
(In general: Polarisation of emitted light reports the rotation of a fluorescent probe.)

The target in experiment [2] is T2, Recombinant STAT6 protein (STAT6 (W123-T658)) (Homo sapiens, UniProt P42226).
T2 construct: Recombinant STAT6 protein (STAT6 (W123-T658))
T2 sequence (P42226 123-658): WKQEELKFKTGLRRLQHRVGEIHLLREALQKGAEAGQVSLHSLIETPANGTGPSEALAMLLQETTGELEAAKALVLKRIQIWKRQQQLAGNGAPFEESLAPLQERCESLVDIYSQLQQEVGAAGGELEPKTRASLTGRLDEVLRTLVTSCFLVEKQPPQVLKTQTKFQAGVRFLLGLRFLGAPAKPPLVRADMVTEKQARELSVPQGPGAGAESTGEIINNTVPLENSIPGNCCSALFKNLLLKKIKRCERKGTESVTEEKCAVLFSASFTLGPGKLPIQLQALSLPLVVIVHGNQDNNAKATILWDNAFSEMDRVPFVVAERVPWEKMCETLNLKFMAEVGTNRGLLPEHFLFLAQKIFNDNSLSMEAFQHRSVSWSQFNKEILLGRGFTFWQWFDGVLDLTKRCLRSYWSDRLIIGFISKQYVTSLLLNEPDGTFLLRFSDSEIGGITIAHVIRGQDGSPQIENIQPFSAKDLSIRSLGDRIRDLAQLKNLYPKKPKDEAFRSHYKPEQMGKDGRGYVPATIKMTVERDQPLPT
Put plainly: STAT6 Fluorescence Polarization (FP) Assay. The format is binding. The following applies: probe 5-FAM-Ap[…]-NH2 2 nM, 45-minute incubation. As to the method:
STAT6 Fluorescence Polarization (FP) Assay
An FP assay was developed to determine IC50 values for test substances. Recombinant STAT6 protein (STAT6 (W123-T658)) at 250 nM was combined with a fluorescently labeled, phosphotyrosine peptide probe (5-FAM-Ap[…]-NH2) at 2 nM in FP buffer (10 mM HEPES pH 7.4, 50 mM NaCl, 1 mM EDTA, 0.05% Tween 20, 2 mM DTT). 50 μL of STAT6-probe mixture was added to serial diluted compounds in black, 96-well plates (Greiner BioOne 655076) to a final concentration of 1% DMSO. Reaction components were mixed, and FP was measured after 45-minute incubation at room temperature using a Tecan Spark multimode plate reader. FP signal (mP) was plotted against the log concentration of the test substances and IC50 values were calculated by nonlinear regression analysis using GraphPad Prism software. For STAT6 FP assay, A=≤300 nM; B=>300-3000 nM; C=>3-30 μM; and D=>30 μM.

Setting [3] is: STAT3 25 nM, read-out: STAT3 (FP assay IC50).
[4] abbreviates: STAT6 250 nM, read-out: STAT6 (FP assay IC50).
[5] abbreviates: STAT3 (G127-I722) 25 nM, read-out: STAT3 (FP assay IC50 class).
[6] abbreviates: STAT6 (W123-T658) 250 nM, read-out: STAT6 (FP assay IC50 class).

Read-outs that look alike come from different tables or passages of the source. Bounds are passed on as bounds.

T1 sequence (P40763 127-722): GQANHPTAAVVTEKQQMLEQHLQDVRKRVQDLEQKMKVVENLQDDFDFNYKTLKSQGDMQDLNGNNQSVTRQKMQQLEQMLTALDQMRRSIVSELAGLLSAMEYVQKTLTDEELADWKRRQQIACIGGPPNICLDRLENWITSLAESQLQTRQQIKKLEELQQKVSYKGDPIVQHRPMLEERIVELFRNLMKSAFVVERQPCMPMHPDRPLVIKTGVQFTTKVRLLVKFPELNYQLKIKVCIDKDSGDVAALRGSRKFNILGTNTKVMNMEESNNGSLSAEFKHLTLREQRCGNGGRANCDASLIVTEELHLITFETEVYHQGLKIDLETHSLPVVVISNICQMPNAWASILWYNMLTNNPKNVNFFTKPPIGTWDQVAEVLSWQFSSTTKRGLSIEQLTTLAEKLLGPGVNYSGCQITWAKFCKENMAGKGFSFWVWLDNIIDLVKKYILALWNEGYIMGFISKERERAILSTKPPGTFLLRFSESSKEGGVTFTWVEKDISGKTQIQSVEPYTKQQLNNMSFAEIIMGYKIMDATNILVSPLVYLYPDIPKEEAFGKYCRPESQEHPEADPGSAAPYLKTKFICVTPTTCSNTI

In the case of `N#C[C@@H]1CN(C(=O)[C@@H]2C[C@@H](O)[C@@H]3CCCCC[C@H](NC(=O)c4cc5cc(C(F)(F)P(=O)(O)O)ccc5s4)C(=O)N23)C[C@H]1c1ccccc1` (relative stereo) [Compound 76, ((2-(((1R,3S,6S, 11aS)-3-(rel-(trans)-3-cyano-4-phenylpyrrolidine-1-carbonyl)-1-hydroxy-5-oxodecahydro-1H-pyrrolo[1,2-a]azonin-6-yl)carbamoyl)benzo[b]thiophen-5-yl)difluoromethyl) phosphonic acid], the values for the IC50 in experiment [1] (setting [3]) and in experiment [2] (setting [4]) were 1 to 10 µM and ≤ 0.3 µM, respectively.

Turning to `Cn1cnnc1C1CN(C(=O)[C@@H]2CC[C@@H]3CCC[C@H](NC(=O)c4cc5cc(C(F)(F)P(=O)(O)O)ccc5s4)C(=O)N32)C1` [Compound 779, (difluoro(2-(((3S,6S,9aS)-3-(3-(4-methyl-4H-1,2,4-triazol-3-yl)azetidine-1-carbonyl)-5-oxooctahydro-1H-pyrrolo[1,2-a]azepin-6-yl)carbamoyl)benzo [b]thiophen-5-yl)methyl) phosphonic acid], the values for the IC50 in experiment [1] (setting [5]) and in experiment [2] (setting [6]) were < 0.1 µM and 3 to 30 µM, respectively.

As to `C[C@H]1C[C@H]2CC[C@@H](C(=O)N3CC(c4cnccc4N(C)C)C3)N2C(=O)[C@@H](NC(=O)c2cc3cc(CP(=O)(O)O)ccc3s2)C1` [Compound 638, ((2-(((3S,6S,8R,9aR)-3-(3-(4-(dimethylamino)pyridin-3-yl)azetidine-1-carbonyl)-8-methyl-5-oxooctahydro-1H-pyrrolo[1,2-a]azepin-6-yl)carbamoyl)benzo [b]thiophen-5-yl)methyl) phosphonic acid], the IC50 was < 0.1 µM in experiment [1] (setting [5]) and 3 to 30 µM in experiment [2] (setting [6]).

Turning to `Cn1cc(C2CN(C(=O)[C@@H]3CC[C@@H]4CCC[C@H](NC(=O)c5cc6cc(C(F)(F)P(=O)(O)O)ccc6s5)C(=O)N43)CCO2)cn1` (stereo partly shown) [Compound 1123], the IC50 was 1 to 10 µM in experiment [1] (setting [5]) and 0.3 to 3 µM in experiment [2] (setting [6]).

As for `Cn1cc(C2CN(C(=O)[C@@H]3CC[C@@H]4CCC[C@H](NC(=O)c5cc6cc(C(F)P(=O)(O)O)ccc6s5)C(=O)N43)C2)cn1` (stereo partly drawn) [Compound 716, (fluoro(2-(((3S,6S,9aS)-3-(3-(1-methyl-1H-pyrazol-4-yl)azetidine-1-carbonyl)-5-oxooctahydro-1H-pyrrolo[1,2-a]azepin-6-yl)carbamoyl)benzo [b]thiophen-5-yl)methyl) phosphonic acid], the IC50 in experiment [1] (setting [5]) was 1 to 10 µM; in experiment [2] (setting [6]), 3 to 30 µM.

For the molecule `O=C(N[C@H]1CCCC[C@H]2CC[C@@H](C(=O)N[C@@H]3CCN(c4ccn[nH]4)C3)N2C1=O)c1cc2cc(C(F)P(=O)(O)O)ccc2s1` (stereo partly drawn) [Compound 559, ((2-(((3S,6S,10aS)-3-(((R)-1-(1H-pyrazol-5-yl)pyrrolidin-3-yl)carbamoyl)-5-oxodecahydropyrrolo[1,2-a]azocin-6-yl)carbamoyl)benzo[b]thiophen-5-yl)fluoromethyl)phosphonic acid], the IC50 was in the range of 1 to 10 µM in experiment [1] (setting [5]) and 0.3 to 3 µM in experiment [2] (setting [6]).

As for `C[C@H]1C[C@H]2CC[C@@H](C(=O)N3CC(c4cnccc4N(C)C)C3)N2C(=O)[C@@H](NC(=O)c2cc3cc([C@H](F)P(=O)(O)O)ccc3s2)C1` [Compound 736, ((R)-(2-(((3S,6S,8R,9aR)-3-(3-(4-(dimethylamino)pyridin-3-yl)azetidine-1-carbonyl)-8-methyl-5-oxooctahydro-1H-pyrrolo[1,2-a]azepin-6-yl)carbamoyl)benzo [b]thiophen-5-yl)fluoromethyl) phosphonic acid], the figures for the IC50 in experiment [1] (setting [5]) and in experiment [2] (setting [6]) were < 0.1 µM and 3 to 30 µM, respectively.

As for `N#C[C@H]1CN(C(=O)[C@@H]2CC[C@@H]3CCCCC[C@H](NC(=O)c4cc5cc(C(F)(F)P(=O)(O)O)ccc5s4)C(=O)N32)C[C@@H]1c1ccccc1` (racemic) [Compound 75, ((2-(((3S,6S,11aS)-3-(rel-(trans)-3-cyano-4-phenylpyrrolidine-1-carbonyl)-5-oxodecahydro-1H-pyrrolo[1,2-a]azonin-6-yl)carbamoyl)benzo[b]thiophen-5-yl)difluoromethyl) phosphonic acid], the IC50 is 1 to 10 µM in experiment [1] (setting [3]) and ≤ 0.3 µM in experiment [2] (setting [4]).

By IC50 is commonly meant the concentration that inhibits the measured activity by half.

Source of the values: US20250215029A1 (Recludix Pharma, Inc., priority 2022, published 2025).
